Measurements taken from the CheMixHub viscosity set.

Assay: xn = mol fraction of the nth substance listed

CCCC(=O)OCC(COC(=O)CCC)OC(=O)CCC + CCCCO
viscosity [mPa·s], 101.33 kPa
Conditions	x1 = 0.1	x1 = 0.2	x1 = 0.3	x1 = 0.4	x1 = 0.5	x1 = 0.6	x1 = 0.7	x1 = 0.8	x1 = 0.9
298 K	2.61	3	3.46	3.99	4.58	5.23	5.96	6.73	7.66
303 K	2.31	2.64	3.03	3.48	3.97	4.54	5.14	5.77	6.54
308 K	2.04	2.33	2.68	3.06	3.45	3.95	4.45	5.01	5.64
313 K	1.83	2.08	2.38	2.7	3.06	3.48	3.9	4.37	4.89

CCCCCCCCCC(=O)OCC + CCCCO
viscosity [mPa·s], 100 kPa
Conditions	x1 = 0.1006	x1 = 0.2001	x1 = 0.3011	x1 = 0.3996	x1 = 0.4999	x1 = 0.6021	x1 = 0.7009	x1 = 0.7986	x1 = 0.9001
293.15 K	2.504	2.299	2.212	2.15	2.125	2.139	2.168	2.2	2.258
298.15 K	2.217	2.037	1.967	1.916	1.914	1.921	1.962	1.984	2.047
303.15 K	1.977	1.825	1.769	1.733	1.727	1.738	1.777	1.798	1.854
308.15 K	1.764	1.643	1.596	1.568	1.569	1.581	1.608	1.639	1.687
313.15 K	1.581	1.488	1.455	1.433	1.431	1.444	1.469	1.501	1.543
318.15 K	1.424	1.344	1.322	1.305	1.31	1.324	1.355	1.379	1.42

CCCCN + CCCCOC(C)=O
303.15 K, 101 kPa
Conditions	viscosity [mPa·s]
x1 = 0.21	0.6407
x1 = 0.2909	0.637
x1 = 0.4108	0.6349
x1 = 0.5598	0.6248
x1 = 0.64	0.6218
x1 = 0.7026	0.6038
x1 = 0.8413	0.5869
x1 = 0.9148	0.5794

O=C(O)C(Cl)(Cl)Cl + CCCCOC(C)=O
323.15 K, 101 kPa
Conditions	viscosity [mPa·s]
x2 = 0.104	4.361
x2 = 0.187	3.749
x2 = 0.3013	2.85
x2 = 0.379	2.406
x2 = 0.494	1.798
x2 = 0.584	1.419
x2 = 0.7106	0.996
x2 = 0.7901	0.81
x2 = 0.929	0.588

CCCCCCCCCC(=O)OCC + CCCO
viscosity [mPa·s], 100 kPa
Conditions	x1 = 0.1002	x1 = 0.2005	x1 = 0.2999	x1 = 0.4	x1 = 0.4999	x1 = 0.601	x1 = 0.7	x1 = 0.7998	x1 = 0.9011
293.15 K	2.031	1.963	1.956	1.986	2.013	2.057	2.123	2.176	2.25
298.15 K	1.809	1.759	1.757	1.786	1.814	1.854	1.912	1.97	2.029
303.15 K	1.618	1.586	1.587	1.611	1.642	1.681	1.74	1.78	1.845
308.15 K	1.456	1.433	1.438	1.461	1.493	1.53	1.578	1.623	1.681
313.15 K	1.315	1.299	1.309	1.333	1.364	1.403	1.446	1.486	1.538
318.15 K	1.192	1.183	1.196	1.22	1.25	1.285	1.33	1.368	1.415

CCCCN + CCCO
viscosity [mPa·s]
Conditions	298.15 K	303.15 K	313.15 K
100 kPa, x2 = 0.1	0.534	–	–
100 kPa, x2 = 0.198	0.612	–	–
100 kPa, x2 = 0.301	0.711	–	–
100 kPa, x2 = 0.417	0.846	–	–
100 kPa, x2 = 0.501	0.965	–	–
100 kPa, x2 = 0.6	1.117	–	–
100 kPa, x2 = 0.695	1.273	–	–
100 kPa, x2 = 0.786	1.451	–	–
100 kPa, x2 = 0.925	1.76	–	–
101.33 kPa, x1 = 0.095	–	1.64	1.281
101.33 kPa, x1 = 0.1888	–	1.48	1.159
101.33 kPa, x1 = 0.2913	–	1.286	1.018
101.33 kPa, x1 = 0.3804	–	1.129	0.9048
101.33 kPa, x1 = 0.5153	–	0.9113	0.7453
101.33 kPa, x1 = 0.6163	–	0.7686	0.6425
101.33 kPa, x1 = 0.7142	–	0.6509	0.5578
101.33 kPa, x1 = 0.788	–	0.5832	0.5009
101.33 kPa, x1 = 0.9022	–	0.4992	0.4349

CC[N+](=O)[O-] + CCCO
viscosity [mPa·s], 101.33 kPa
Conditions	293.15 K	303.15 K	313.15 K
x2 = 0.05	0.686	0.609	0.544
x2 = 0.1	0.683	0.605	0.539
x2 = 0.1499	0.69	0.607	0.539
x2 = 0.2001	0.702	0.617	0.547
x2 = 0.25	0.72	0.629	0.554
x2 = 0.3	0.748	0.647	0.567
x2 = 0.35	0.776	0.667	0.581
x2 = 0.4	0.808	0.694	0.609
x2 = 0.45	0.848	0.724	0.623
x2 = 0.5	0.898	0.758	0.655
x2 = 0.55	0.951	0.8	0.681
x2 = 0.6	1.016	0.852	0.718
x2 = 0.65	1.085	0.902	0.756
x2 = 0.7	1.17	0.967	0.808
x2 = 0.75	1.282	1.043	0.881
x2 = 0.8	1.391	1.133	0.947
x2 = 0.85	1.539	1.243	1.035
x2 = 0.9	1.717	1.377	1.125
x2 = 0.95	1.945	1.559	1.239

Cc1ccncc1 + CCCO
298.15 K, 101.33 kPa
Conditions	viscosity [mPa·s]
x2 = 0.091	0.9024
x2 = 0.2095	0.9381
x2 = 0.3419	1.007
x2 = 0.4177	1.071
x2 = 0.5662	1.168
x2 = 0.7017	1.327
x2 = 0.7646	1.405
x2 = 0.8291	1.52
x2 = 0.867	1.591
